Laboratory results taken from patent publication US20180028498A1, “A PHARMACEUTICAL COMPOSITION FOR THE PARENTERAL ADMINISTRATION OF MELATONIN, AND A PROCESS FOR ITS PREPARATION” (INDUSTRIA FARMACEUTICA GALENICA SENESE S.R.L., priority 2015, published 2018).

Columns and labels:
[1] = test system: chronic lung disease; conditions: infants; cited from earlier work
[2] = test system: pain; conditions: in combination with other drugs, endotracheal intubation in infants; cited from earlier work
[3] = test system: free radicals (pro-inflammatory cytokines); conditions: ventilated infants with bronchopulmonary dysplasia; cited from earlier work
[4] = Solubility / maximum concentration of melatonin in solvent; format: physicochemical; conditions: physiological saline solution, no excipients, co-solvents or diluents
Text: There are moreover disclosed in the literature injectable formulations of melatonin, that are in general solutions of melatonin in ethanol or in propylene glycol, then diluted with water. As a matter of fact, melatonin is known to be a substance that dissolves in aqueous media with great difficulties.
The present pharmaceutical compositions in the form of an aqueous solution, thanks to the process of preparation of the invention described in detail in the following, may contain, dissolved in aqueous solution, amounts of melatonin that are relatively high and suitable for the dosages required in medical treatments; the concentration of melatonin in the present compositions is indeed comprised between 0.2 and 0.4 mg/ml, this latter being the maximum value of concentration obtained for the melatonin in the present aqueous compositions, in the absence of any excipients, co-solvents or diluents different from the physiological saline solution.
A pharmaceutical dissolver of suitable size was deaerated by insufflation of filtered nitrogen, then the dissolver was charged with water for injections at 85° C., to fill approximately 80% of the inner volume of the dissolver. After cooling water at 50° C., sodium chloride was added in such amount as to obtain a final concentration of 9mg/ml; the so obtained solution was deaerated by bubbling filtered nitrogen. […]

[5] = cited from earlier work

## COc1ccc2[nH]cc(CCNC(C)=O)c2c1 [melatonin, N-acetyl-5-methoxytriptamine]
[1]
  efficacy in chronic lung disease: same efficacy has been demonstrated
[2]
  efficacy as an analgesic: demonstrated the efficacy
[3]
  reduction of production of free radicals (pro-inflammatory cytokines): effective in reducing the production of these molecules
[4]
  maximum value of concentration obtained in aqueous composition: 0.4 mg/mL
[5]; ethanol
  solubility in ethanol: fairly good solubility
[5]; water
  solubility in water: close to zero
